Data taken from patent US20250243189A1, “HERBICIDAL IMIDAZOLE-CONTAINING COMPOUNDS” (SYNGENTA CROP PROTECTION AG, priority 2022, published 2025).

Tests used:
Assay type in all cases: in vivo
Details in all cases: 250 g/ha, evaluated after 13 days, five-point scale
[1] = system: AMAPA; assay: Pre-emergence herbicidal glasshouse test
[2] = system: IPOHE; assay: Pre-emergence herbicidal glasshouse test
Method in brief: (§1)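 Five-point damage score (5=81-100%, 4=61-80%, 3=41-60%, 2=21-40%, 1=0-20%) read 13 days post-spray. Treatment: 250 g/ha unless otherwise stated, aqueous spray from acetone/water (50:50) + 0.5% Tween 20, applied 1 day (pre) or 8 days (post) after sowing.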

[3] = system: Echinochloa crus-galli (ECHCG); assay: Pre-emergence herbicidal glasshouse test
Method in brief: as §1

[4] = system: Setaria faberi (SETFA); assay: Pre-emergence herbicidal glasshouse test
Method in brief: as §1

[5] = system: Amaranthus retoflexus (AMARE); assay: Pre-emergence herbicidal glasshouse test
Method in brief: as §1

[6] = system: AMAPA; assay: Post-emergence herbicidal glasshouse test
[7] = system: IPOHE; assay: Post-emergence herbicidal glasshouse test
Method in brief: as §1

[8] = system: Echinochloa crus-galli (ECHCG); assay: Post-emergence herbicidal glasshouse test
Method in brief: as §1

[9] = system: Setaria faberi (SETFA); assay: Post-emergence herbicidal glasshouse test
Method in brief: as §1

[10] = system: Amaranthus retoflexus (AMARE); assay: Post-emergence herbicidal glasshouse test
Method in brief: as §1

Compound	percentage damage caused to the plant, AMAPA [1]	percentage damage caused to the plant, IPOHE [2]	percentage damage caused to the plant, ECHCG [3]	percentage damage caused to the plant, SETFA [4]	percentage damage caused to the plant, AMARE [5]	percentage damage caused to the plant, AMAPA [6]	percentage damage caused to the plant, IPOHE [7]	percentage damage caused to the plant, ECHCG [8]	percentage damage caused to the plant, SETFA [9]	percentage damage caused to the plant, AMARE [10]
Cn1cc(-c2nc(C(F)(F)F)cn2Cc2ncc(Cl)cn2)cn1 [Compound 1.014]	5 (5=81-100%)	5 (5=81-100%)	4 (4=61-80%)	4 (4=61-80%)	4 (4=61-80%)	3 (3=41-60%)	3 (3=41-60%)	2 (2=21-40%)	2 (2=21-40%)	3 (3=41-60%)
Cc1ccc(-c2nc(C(F)F)cn2Cc2ncc(Cl)cn2)s1 [Compound 1.068]	5 (5=81-100%)	4 (4=61-80%)	3 (3=41-60%)	4 (4=61-80%)	5 (5=81-100%)	2 (2=21-40%)	1 (1=0-20%)	1 (1=0-20%)	1 (1=0-20%)	3 (3=41-60%)
FC(F)(F)c1cn(Cc2ncc(Cl)cn2)c(-c2ccco2)n1 [Compound 1.016]	1 (1=0-20%)	1 (1=0-20%)	1 (1=0-20%)	1 (1=0-20%)	1 (1=0-20%)	1 (1=0-20%)	1 (1=0-20%)	1 (1=0-20%)	1 (1=0-20%)	1 (1=0-20%)
